Measurements reported in US11661399B2, “Methods and compositions for preventing degradation of dimethyl trisulfide” (priority 2018, dated 2023).

Experiments:
[1] = DMTS degradation over 14 days at 54° C. (gas chromatograph, Day 0 vs Day 14); type: physicochemical; conditions: water + MDEA, pH lowered to 2, two weeks at 54° C.
Procedure: (§1) EPA accelerated stability guidelines call for storage of compositions at 54° C. for two weeks. This is considered to be the equivalent to storing compositions for one year at room temperature. These conditions were applied to the following studies to ensure that DMTS can be formulated in compliance with EPA guidelines.
In this example, various concentrations of DMTS in water, ethanol (EtOH), and propylene glycol (PG), with and without MDEA, were prepared and tested for degradation. The pH was adjusted to 2, 7, or 12+/−0.5 with sodium hydroxide or hydrochloric acid. The DMTS concentration was measured by gas chromatograph on Day 0 and Day 14 and the percent degradation calculated from those values. The formulas were capped and stored at 54° C. for two weeks.

[2] = Accelerated stability storage: DMTS recovery over time in solution; type: physicochemical; conditions: for DMTS degraded: 14 days at 54° C.
Procedure: as §1
120 ppm DMTS only is compared to 120 ppm DMTS with 420 ppm MDEA. Using the accelerated conditions described above, DMTS in water was still observed to be degrading over time.
Various conditions were modified to improve the overall stability of DMTS in solution. First, the pH was lowered by buffering the solution. It was predicted that a lower pH might prevent the catalyzation of DMTS breakdown. The solution was buffered to a pH of 6 and compared to a control. 32 ppm DMTS was stored in glass at 40° C. for 7 days, then stored at 54° C. for an additional 15 days.
DMDS was added to the DMTS in this example. It was hypothesized that if the breakdown pathway of DMTS to DMDS exists in equilibrium, additional DMDS would stabilize the breakdown pathway. DMDS was added to formulas containing DMTS only and DMTS with MDEA.
It was hypothesized that propylene glycol (PG) could have a similar effect. Samples were prepared with 8 ppm and 4 ppm DMTS in water as controls. Experimental samples included 8 ppm DMTS with 1% PG or 10% PG. A sample was also prepared in an HDPE container that was not fluorinated.
This example examined the effects of fluorination of HDPE containers on the stability of DMTS. Stability of DMTS was recorded for storage at 54° C. over the course of 14 days. Glass containers were used as a control. HDPE containers were tested having no fluorination (F0), Level 3 fluorination (F3), and Level 5 fluorination (F5). Samples of DMTS were prepared to a dilution of 8 ppm DMTS in water with 10% PG.
Given the improvements seen with 10% PG used as solvent, higher concentrations of PG were tested. 0.28% DMTS in 100% PG was tested for stability over two weeks at 54° C. Storage in glass containers was compared to HDPE containers with Level 3 fluorination.
Other solvents were tested without dilution with water. Samples of 0.03% DMTS were prepared in 100% solvent. The solvents tested were ethanol in a glass container, PG in a glass container, PG in a non-fluorinated HDPE container, and glycerol in a glass container.
In this example, 0.03 wt-% (300 ppm) DMTS was dissolved into solvent consisting of 100% ethanol (EtOH) or 100% propylene glycol (PG). This study is very similar to Example 7. Recovery of DMTS was recorded over the course of 14 days. The DMTS solutions were stored in the accelerated conditions of 54° C. Less than 10% DMTS was degraded over the course of 14 days for both EtOH and PG.
In this example, a lower concentration of DMTS was used to produce a use composition. 32 ppm DMTS was dissolved in either a 100% water solution or a combination of 10% PG and 90% water. The same accelerated conditions were used for 14 days. Over 70% of DMTS was recovered with water as the only solvent. However, using a 10% PG solution in water improved DMTS stability, providing greater than 80% recovery.
Even lower concentrations of DMTS were examined to determine if further dilution of the concentrate affects stability of DMTS. Solutions including 8 ppm DMTS were prepared. DMTS was dissolved in water, a solution of 1 wt-% PG in water, and a solution 10 wt-% PG in water. […] The reduced quantity of DMTS did have a slight negative effect on stability.
Finally, solutions including 1 ppm DMTS were examined to determine if use compositions including small amounts of DMTS can remain stable over the course of the two week testing period at 54° C. […] Hard water had the greatest negative effect on DMTS stability.

CSSSC [DMTS, dimethyl trisulfide]
DMTS degraded [1]: 20%
DMTS remaining in solution ([2]; 1 ppm DMTS in hard water, day 14, 54° C.): no DMTS remained
DMTS stability (in words) ([2]; 8 ppm DMTS in water with 10% PG, HDPE Level 5 fluorination (F5), 54° C., 14 days): best results which were similar to the glass containers
DMTS degradation (in words) ([2]; 8 ppm DMTS in water with 10% PG, non-fluorinated HDPE (F0), 54° C., 14 days): fastest rates of DMTS degradation
DMTS stability (in words) ([2]; 8 ppm DMTS with 1% PG or 10% PG vs water controls): Some improvement
DMTS recovered ([2]; 32 ppm DMTS in 100% water, 14 days accelerated conditions): Over 70%
DMTS degradation (in words) ([2]; 32 ppm DMTS in solution with ethanol, glass, 40° C. 7 days then 54° C. 15 days): least degradation
DMTS stability (in words) ([2]; 32 ppm DMTS, N2 blanket and soft water samples, glass, 40° C. 7 days then 54° C. 15 days): least stable conditions
DMTS breakdown (in words) ([2]; 32 ppm DMTS, pH 6 buffer, glass, 40° C. 7 days then 54° C. 15 days): faster breakdown than the control
DMTS degradation over time (in words) ([2]; 120 ppm DMTS only in water vs 120 ppm DMTS with 420 ppm MDEA, accelerated conditions): degradation was slowed significantly
DMTS degraded ([2]; 300 ppm DMTS in 100% EtOH): Less than 10%
DMTS degraded ([2]; 300 ppm DMTS in 100% PG): Less than 10%
DMTS breakdown (in words) ([2]; DMDS added to DMTS only and DMTS with MDEA formulas): did not slow down the breakdown of DMTS
DMTS degradation (in words) ([2]; sample in non-fluorinated HDPE container, 54° C.): significantly faster degradation
